Assay results published in PMC8533149 (Biomolecules, 2021).
Where two headings read alike, the source gives them in different places.

Assays:
[1] = test system: Telo (DNA, G4) AGGGTTAGGGTTAGGGTTAGGG; test: FRET melting; settings: 100 mM KCl; 10 mM lithium cacodylate pH 7.4, 0.25% DMSO; 12.5 μM compound, 0.25 μM DNA (50:1)
[2] = test system: dsDNA (DNA, duplex) CTATAGCGCGCTATAG; test: FRET melting; settings: 100 mM KCl; 10 mM lithium cacodylate pH 7.4, 0.25% DMSO; 12.5 μM compound, 0.25 μM DNA (50:1)
[3] = test system: HIV-1 LTR-III G-quadruplex (FAM/TAMRA-labeled LTR-III); test: FRET melting assay, LTR-III G4; format: binding; settings: for LTR-III ΔTm: Table S1 primary screening, ligand:ODN 50:1, singlicate
In short: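 Melting is followed by FAM fluorescence (ex 495/em 520 nm) while heating at 1 °C/min from 30 to 95 °C. Labelled ODN at 0.5 μM, pre-annealed in 10 mM Li cacodylate, 100 mM KCl, pH 7.4, mixed with ligand at 50:1 (25 μM), or 20:1 and 2:1 for titration. ΔTm is relative to the 0.25% DMSO buffer control.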

LTR-III G4 = test: NMR titration of LTR-III; format: binding, HIV-1; settings: for interaction with LTR-III by NMR titration (selective signal attenuation): 50 μM LTR-III, 1D 1H NMR
Procedure: All NMR spectra were acquired on a Bruker Avance III 800 MHz spectrometer equipped with a cryoprobe. Titration of 50 μM LTR-III samples (70 mM KCl, 20 mM potassium phosphate buffer, pH 7.0) with 2 mM ZS260.1 and N979 ligands dissolved in DMSO was performed. 1D ^1H NMR spectra were used to track the changes during titration. ^1H-^13C HSQC and HMBC at 35 °C were used to transfer the assignment of H6/C6 and H8/C8 signals from previously obtained assignment. To identify the LTR-III residues that are most influenced by addition of ZS260.1 ligand, the intensities of cross-peaks in the ^1H-^13C HSQC spectra measured with and without added ligand were compared. The H6/C6 and H8/C8 cross-peak intensities were measured at molar ratio of LTR-III to ZS260.1 of 5:1 (35 °C, 0.5 mM LTR-III G4).
The ligand binding processes are probably in intermediate to fast regime on the NMR timescale. Therefore, the resonances of residues that are close to the ligand binding site (s) become broadened and attenuated (intermediate exchange regime).
To determine affinity of the compound ZS260.1 to LTR-III G4 we analyzed changes in H8 chemical shift of G8 residue in 1D ^1H NMR spectra. […] The titration data were successfully approximated by simple chemical reaction A + B = AB, that implies one to one stoichiometry of binding that is consistent with literature data (Suppl. S8). The dissociation constant for the LTR-III/ZS260.1 complex (Kd) was on the order of 3 μM.

[4] = test system: human telomeric sequence Telo G4; test: FRET melting assay, Telo; format: binding; settings: Table S2, primary screening lead compounds, 50:1
Procedure: (§1) To evaluate stabilizing properties of the ligands in a complex with oligodeoxyribonucleotides (ODNs) melting with fluorescence registration was used. ODN (0.5 μM) (Table 1), labeled with 6-carboxyfluorescein (FAM) and 6-carboxytetramethylrhodamine (TAMRA) at the 5′- and 3′-end, respectively, were folded in lithium cacodylate buffer (10 mM, pH 7.4) with 100 mM KCl by heating at 95 °C for 5 min and gradually cooling to r.t. GFP chromophore analogs (5 mM solution in DMSO) were diluted with the same buffer to the final concentration of 25 μM and mixed with an equal volume of 0.5 μM ODN solution resulting in a molar ratio of 50:1 (total volume was 50 μL). For the titration experiments molar ratios of 20:1 and 2:1 were used. Samples were analyzed using DTprime qPCR system (DNA-Technology LLC, Moscow, Russia). Fluorescence was registered by detection of FAM emission at 520 nm upon excitation at 495 nm in the temperature range of 30–95 °C with 1 °C/min gradient. Tm was determined using the instrument software and ΔTm was calculated relative to ODN Tm in a buffer solution containing 0.25% (v/v) DMSO. The primary and secondary screening were carried out in singlicate and triplicate, respectively.
(§2) Initially we screened an in-house library of 440 synthetic GFP chromophore analogues for interaction with HIV-1 LTR-III sequence, which modulates HIV-1 promoter activity, using high-throughput screening (HTS) FRET melting assay (Table S1). […] We selected 11 compounds (Figure 2A), displaying stabilization in the range of 2.4–7.8 °C, and evaluated their ability to stabilize other G4-forming sequences, including human telomeric sequence Telo (one of the most common G4 structures in the human genome, having two conformations, Hybrid-1 and Hybrid-2 [36]) and model G4 […] (the G-rich Pu39 region of the P1 promoter of the oncogene BCL-2, an apoptosis regulator [37] with polymorphic conformational structure), as well as double stranded oligonucleotide (duplex) control sequence (Figure 2B, Table S2).

[5] = test system: Pu39 G4 (G-rich region of the P1 promoter of BCL-2); test: FRET melting assay, Pu39; format: binding, human; settings: Table S2, primary screening lead compounds, 50:1
Procedure: as §1, §2

[6] = test system: dsDNA (double stranded control sequence); test: FRET melting assay, duplex control; format: binding; settings: Table S2, primary screening lead compounds, 50:1
Procedure: as §1, §2

Cytotoxicity test = format: cell-based; settings: human, MT4 cells (human T cell leukemia), Figure 7
Procedure: (§3) Green monkey kidney (Vero, Beach, FL, USA) cell line was maintained in 2 × Eagle MEM (“Chumakov FSC R&D IBP RAS”, Russia) with 5% FBS with L-glutamine, penicillin and streptomycin. […] HIV-1 strain NL4-3 was obtained via cell transfection with pNL4-3 3 (ARP2006, NIBSC, Potters Bar, UK).
(§4) MT4 cell suspensions were added to the wells with compound dilutions and DMSO control (approx. 2 × 10^4 cells per well). […] All experimental procedures were performed in two replicates and were repeated two to four times. Mean and SD were calculated with OriginPro 8 (OriginLab, St. Louis, MO, USA).

MT4 cells = test: Cytotoxicity test; format: cell-based; settings: Table S12, nine days
Procedure: as §3, §4

[7] = test system: HIV-1 strain NL4-3 in MT4 cells; test: Cytopathic effect inhibition test; format: cell-based; settings: HIV-1 NL4-3, MT4 cells
Procedure: Human T cell leukemia (MT4) cell line was maintained in RPMI-1640 (“Chumakov FSC R&D IBP RAS”, Moscow, Russia) with 10% of fetal bovine serum (FBS, Invitrogen, Waltham, MA, USA), L-glutamine and gentamicin. Green monkey kidney (Vero, Beach, FL, USA) cell line was maintained in 2 × Eagle MEM (“Chumakov FSC R&D IBP RAS”, Russia) with 5% FBS with L-glutamine, penicillin and streptomycin. Cell cultures were incubated in the present of 5% CO2 at 37 °C. HIV-1 strain NL4-3 was obtained via cell transfection with pNL4-3 3 (ARP2006, NIBSC, Potters Bar, UK).
Eight two-fold dilutions of stock solutions of the compounds in two replicates were prepared in RPMI-1640 (“Chumakov FSC R&D IBP RAS”, Russia). Compound dilutions were mixed with equal volumes of the virus suspension containing 100 CCID50 (50% tissue culture infectious dose). Control cells were treated with the same sequential concentrations of DMSO as in compound dilutions. Then, the MT4 cell suspension (approx. 2 × 10^4 cells per well) in RPMI-1640 containing 10% FBS (Invitrogen, South America) was added to experimental mixtures. A final concentration series started from 25 μM. Each experiment contained virus dose titration in the inoculate to assure the acceptable dose-range. After a nine-day incubation (5% CO2, at 37 °C), cytopathic effect (CPE) was visually accessed via microscope. EC50 values were calculated according to the Karber method. All experimental procedures were performed in two replicates and were repeated two to four times. Mean and SD were calculated with OriginPro 8 (OriginLab, St. Louis, MO, USA).

Compound	ΔTm [1] [°C]	ΔTm [2] [°C]	LTR-III ΔTm [3] [°C]	LTR-III ΔTm ([3]; listed as N979)	interaction with LTR-III by NMR titration (selective signal attenuation) (LTR-III G4)	LTR III stabilization ([3]; Figure 7, stabilization group) [°C]	LTR-III (average) ([3]; Table S12, average stabilization)	ΔTm Telo [4] [°C]	ΔTm Pu39 [5] [°C]	ΔTm Duplex [6] [°C]	Kd (LTR-III G4; H8 chemical shift of G8 in 1D 1H NMR, 1:1 binding model, read-out: dissociation constant for the LTR-III/ZS260.1 complex (Kd)) [µM]	CC50 at 9 days (Cytotoxicity test) [µM]	СС50 (MT4) (MT4 cells) [µM]	EC50 ([7]; Human immunodeficiency virus 1, NL43, 216 h, Table S12, CPE, nine-day incubation, read-out: EC50) [µM]	EC50 ([7]; Human immunodeficiency virus 1, NL43, Figure 7, read-out: Antiviral activity EC50 (HIV)) [µM]	EC50 ([7]; Table S12, CPE, nine-day incubation)
COc1ccc(/C=C/C=C/C2=NC(=C\c3ccc(O)cc3OC)/C(=O)N2C)cc1	3.9±0.1	-0.1±0.04														
COc1cc(/C=C2\N=C(C)N(C)C2=O)cc(OC)c1O [N 979]			-0.2	non-stabilizing	interact with the LTR-III molecule											
COc1cc(/C=C2N=C(/C=C/c3cc(Br)c(O)c(Br)c3)N(C)C\2=O)cc(OC)c1O [ZS 260.1]	0.7±0.2	0.1±0.09	7.8		interact with the LTR-III molecule	> 3	8,35 °C	0.7±0.2	0.9±0.6	0.1±0.09	~3	4.1 ± 0.6	4.1 ± 0.6	3.78 ± 0.91	3.8 ± 0.9	micromolar range
